Experimental data: US20170367338A1, “COMPOSITIONS AND METHODS FOR IMPROVING AGRONOMIC CHARACTERISTICS OF PLANTS” (MONSANTO TECHNOLOGY LLC, priority 2014, published 2017)
Converted amounts (≈) assume the structure as drawn. Where two headings read alike, the source gives them in different places.

Experiments:
[1] = format: in vivo; settings: three female mice, observed up to 14 days
Experimental: Acute oral toxicity testing was performed in mice in accordance with test method P203.UDP, as administered by Eurofins/Product Safety Laboratories (Dayton, New Jersey). CD-1/Swiss derived albino mice were obtained and group housed in suspended solid bottom caging. The mice were fed rodent chow and filtered tap water was supplied ad libitum. Following acclimation to the laboratory setting, a group of animals was fasted overnight by removing food from the cages. After the fasting period, three female mice were selected based on vitality and initial body weights. The individual compound doses were calculated from these body weights.
The test substance was prepared as a 1% (50 mg/kg) or 5% (500 mg/kg) weight to weight (w/w) mixture in a 0.5% w/w solution of carboxymethylcellulose (CMC) in distilled water. A tissue homogenizer was used to create a homogeneous mixture. A dose of 50 or 500 mg/kg was administered to three healthy mice per dose level by oral intubation using a ball-tipped gavage needle attached to a syringe. After administration, the animals were returned to their cages, and feed was replaced immediately after dosing.
Body weights were recorded prior to initiation and on Days 7 and 14 or a soon as possible after death.

Meloidogyne incognita [2] = assay: M. incognita miniaturized greenhouse assay on cucumber seedlings; format: in vivo; settings: 1 ppm; Table 1C test a
Summary of the method: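 Compound in acetone/Triton X100 diluted into water with 0.015% Triton X100, applied to sand vials holding 3-day cucumber sprouts; 500 M. incognita eggs inoculated two days after planting. Roots rated 10–12 days post-inoculation for % galling (0–3 scale, triplicate mean) plus visual root-stunting phytotoxicity.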

[3] = tested on: Heterodera glycines (SCN); assay: Seed treatment test of soybean cyst nematode on soybean; format: in vivo; settings: Heterodera glycines, 672 h, test a, read-out: percent cyst reduction relative to control blank treatment
Summary of the method: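 Seeds (1 g cucumber for RKN, soybean for SCN) coated with compound in 500 ul acetone, air-dried, sown in sandy soil. Pots inoculated 3 days later with 1000 eggs per pot. Galling rated 14 days (RKN) or 28 days (SCN) after inoculation.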

root knot nematode (RKN) = assay: RKN greenhouse soil assay on cucumber plants; format: in vivo; settings: Radex emulsifiable concentrate formulation (6.25% active ingredient)
[4] = tested on: Caenorhabditis elegans ced-3(n717) and ced-4(N1162) mutants; assay: Susceptibility of C. elegans apoptosis mutants on NGM agar plates; format: in vivo; settings: 10μg/ml on NGM agar plates
C. elegans = assay: Three day C. elegans well assay; format: in vivo; settings: Caenorhabditis elegans
Summary of the method: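 Contact assay in wells: DMSO dilutions (4 ul from 100× stocks at 10 mg/ml) with bacterial feed in M9 buffer plus ampicillin and nystatin. L1 (starvation-arrested) or L4 worms added, shaken at 20° C. Scored at 4, 24, 48 and 72 hours.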

Meloidogyne incognita [5] = assay: Summer field evaluation of pre-plant incorporated compounds on squash; format: in vivo; settings: 4 kg/ha
Summary of the method: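 Compound in acetone/Triton X-100 emulsion mixed into sand/silt loam with galled tomato roots, filling top 15 cm of field plots (pre-plant incorporated), 6 replicates. Plots inoculated with 100k M. incognita eggs/larvae at 5 cm depth. Squash cv. Liberator III transplanted 4 days after treatment.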

Structure (SMILES)	acute oral toxicity: mortality and signs ([1]; 50 mg/kg oral)	acute oral toxicity: mortality and signs ([1]; 500 mg/kg oral)	1 ppm gall rating (Meloidogyne incognita [2])	pest or weed control at 0.375 mg/g ([3]; 0.375 mg ai/gram seed) [%]	pest or weed control at 1.5 mg/g ([3]; 1.5 mg ai/gram seed) [%]	percent control (galling reduction), Radex 1 mg/kg (root knot nematode (RKN)) [%]	susceptibility of ced-3 and ced-4 mutants versus wild-type C. elegans (N2 Bristol), including time to mortality [4]	EC50 (C. elegans; 24 h, L1 larvae, one day of exposure, read-out: EC50 L1 1D) [µg/mL]	EC50 (C. elegans; 24 h, L4 larvae, one day of exposure, read-out: EC50 L4 1D) [µg/mL]	EC50 (C. elegans; 48 h, L1 larvae, two days of exposure, read-out: EC50 L1 2D) [µg/mL]	EC50 (C. elegans; 48 h, L4 larvae, two days of exposure, read-out: EC50 L4 2D) [µg/mL]	EC50 (C. elegans; 72 h, L1 larvae, three days of exposure, read-out: EC50 L1 3D) [µg/mL]	EC50 (C. elegans; 72 h, L4 larvae, three days, effects on the second generation larvae, read-out: EC50 L4 3D (F1)) [µg/mL]	control of M. incognita by PPI application (Meloidogyne incognita [5])
c1ccc(-c2noc(-c3cccs3)n2)cc1 [compound 1822]	all animals survived	all animals died within three days	0 (0=0-5%)	58	70	98								
Cc1cc(Cl)ccc1-c1noc(-c2ccco2)n1 [compound 5823]							No observable phenotypic difference in susceptibility	0.4 (≈ 1.53 µM)	1.6 (≈ 6.14 µM)	0.4 (≈ 1.53 µM)	0.4 (≈ 1.53 µM)	0.4 (≈ 1.53 µM)	0.4 (≈ 1.53 µM)	excellent control
